Laboratory results reported in patent US10221139B2, “Inhibitors of histone demethylases” (Gilead Sciences, Inc., priority 2012, dated 2019).

Columns and labels:
Type in all cases: biochemical
[1] = target: T1, GASC1 (KDM4C, JMJD2C) (Homo sapiens, UniProt Q9H3R0); assay: Histone lysine demethylase AlphaLISA assay, GASC1; settings: substrate BK9M3
T1 construct: 1-349; host or cells: E. coli
T1 sequence (Q9H3R0 1-349): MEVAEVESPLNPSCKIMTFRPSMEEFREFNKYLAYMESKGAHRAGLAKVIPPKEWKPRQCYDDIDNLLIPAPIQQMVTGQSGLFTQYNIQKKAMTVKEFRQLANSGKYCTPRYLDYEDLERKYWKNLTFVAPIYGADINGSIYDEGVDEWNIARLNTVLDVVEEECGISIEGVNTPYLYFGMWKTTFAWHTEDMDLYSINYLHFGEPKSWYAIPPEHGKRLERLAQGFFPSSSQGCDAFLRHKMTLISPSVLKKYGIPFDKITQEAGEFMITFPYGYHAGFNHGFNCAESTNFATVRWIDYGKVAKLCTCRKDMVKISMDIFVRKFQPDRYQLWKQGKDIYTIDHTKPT
Method in brief: (§1)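 IC50 values come from an AlphaLISA signal: acceptor beads incubated 60 min in the dark, then streptavidin donor beads, both at room temperature. Beforehand, enzyme and compound were preincubated 10 min and the substrate reaction ran at room temperature.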

[2] = target: T2, FBXL10 (KDM2B) (Homo sapiens, UniProt Q8NHM5); assay: Histone lysine demethylase AlphaLISA assay, FBXL10; settings: substrate BH3K36M2
T2 construct: 1-650; purchased BPS, Bioscience, US; host or cells: Bac (baculovirus)
T2 sequence (Q8NHM5 1-650): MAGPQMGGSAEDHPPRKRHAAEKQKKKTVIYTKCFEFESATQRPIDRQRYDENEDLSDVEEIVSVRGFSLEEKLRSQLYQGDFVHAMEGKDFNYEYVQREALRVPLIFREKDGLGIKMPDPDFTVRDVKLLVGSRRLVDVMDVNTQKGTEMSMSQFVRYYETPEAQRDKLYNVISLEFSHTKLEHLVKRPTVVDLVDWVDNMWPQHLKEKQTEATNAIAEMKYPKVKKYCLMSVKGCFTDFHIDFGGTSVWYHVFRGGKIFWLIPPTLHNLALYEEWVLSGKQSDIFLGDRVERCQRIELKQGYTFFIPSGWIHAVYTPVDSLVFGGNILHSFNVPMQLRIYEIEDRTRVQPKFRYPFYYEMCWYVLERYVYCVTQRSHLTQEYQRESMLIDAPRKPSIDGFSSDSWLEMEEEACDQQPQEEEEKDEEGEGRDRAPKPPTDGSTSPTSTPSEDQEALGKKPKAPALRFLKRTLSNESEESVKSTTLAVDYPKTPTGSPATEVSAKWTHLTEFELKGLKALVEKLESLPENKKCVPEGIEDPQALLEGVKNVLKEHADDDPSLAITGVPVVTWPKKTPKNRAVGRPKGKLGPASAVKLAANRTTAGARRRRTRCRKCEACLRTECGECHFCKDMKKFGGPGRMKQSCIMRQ
Method: Example 2: Histone Lysine Demethylase AlphaLISA Assays for IC50 Value Determination
Assays are performed analogously to the protocol described by Perkin Elmer (Roy et al. Perkin Elmer Technical Note: AlphaLISA #12, April 2011).
Enzymes are dissolved in enzyme buffer and incubated for 10 min before 5 μL is added to 5 μL 3% DMSO solutions of compounds in enzyme buffer. Incubated for another 10 minutes, before 5 μL substrate solution is added and the reaction mixture is incubated at room temperature for the given period. 10 μL acceptor beads, suspended at given dilutions in Epigenetic Buffer (Perkin Elmer AL008) from stock, are added and the suspension is incubated 60 minutes in the dark at room temperature, before 10 μL suspension (at the given dilutions in Epigenetic Buffer) of streptavidin donor beads (Perkin Elmer 6760002) in Epigenetic Buffer is added. After incubation at room temperature in the dark the plates are read. Reaction conditions are seen in Table 2b.

[3] = target: T3, UTX (KDM6A) (Homo sapiens, UniProt O15550); assay: Histone lysine demethylase AlphaLISA assay, UTX; settings: substrate BK27M3
T3 construct: 919-1401; host or cells: E. coli
Method in brief: as §1

[4] = target: T4, PLU1 (KDM5B) (Homo sapiens, UniProt Q9UGL1); assay: Histone lysine demethylase AlphaLISA assay, PLU1; settings: substrate H3K4M3B
T4 construct: 1-809; host or cells: E. coli
T4 sequence (Q9UGL1 1-809): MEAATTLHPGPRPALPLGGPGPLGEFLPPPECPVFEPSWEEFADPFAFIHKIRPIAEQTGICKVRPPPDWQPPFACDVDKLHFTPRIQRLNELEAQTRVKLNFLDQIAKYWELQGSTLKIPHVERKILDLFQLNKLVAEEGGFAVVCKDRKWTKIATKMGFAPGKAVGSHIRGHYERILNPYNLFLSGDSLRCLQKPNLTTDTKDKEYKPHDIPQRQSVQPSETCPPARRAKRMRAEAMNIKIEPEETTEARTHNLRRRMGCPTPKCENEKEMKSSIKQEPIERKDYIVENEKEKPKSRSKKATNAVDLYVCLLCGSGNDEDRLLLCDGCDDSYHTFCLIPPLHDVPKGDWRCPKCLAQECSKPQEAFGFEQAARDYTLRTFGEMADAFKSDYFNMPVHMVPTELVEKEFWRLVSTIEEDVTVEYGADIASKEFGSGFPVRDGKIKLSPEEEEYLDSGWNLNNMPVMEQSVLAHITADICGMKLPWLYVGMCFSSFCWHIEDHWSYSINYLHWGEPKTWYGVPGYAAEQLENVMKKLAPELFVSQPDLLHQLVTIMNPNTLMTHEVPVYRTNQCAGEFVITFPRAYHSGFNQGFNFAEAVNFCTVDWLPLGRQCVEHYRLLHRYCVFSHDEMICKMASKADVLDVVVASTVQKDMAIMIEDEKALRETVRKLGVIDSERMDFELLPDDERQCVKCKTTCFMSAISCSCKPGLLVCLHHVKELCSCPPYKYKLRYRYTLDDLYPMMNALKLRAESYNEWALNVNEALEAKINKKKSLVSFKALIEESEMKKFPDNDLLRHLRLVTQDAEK
Method in brief: as §1

T3 sequence (O15550 919-1401): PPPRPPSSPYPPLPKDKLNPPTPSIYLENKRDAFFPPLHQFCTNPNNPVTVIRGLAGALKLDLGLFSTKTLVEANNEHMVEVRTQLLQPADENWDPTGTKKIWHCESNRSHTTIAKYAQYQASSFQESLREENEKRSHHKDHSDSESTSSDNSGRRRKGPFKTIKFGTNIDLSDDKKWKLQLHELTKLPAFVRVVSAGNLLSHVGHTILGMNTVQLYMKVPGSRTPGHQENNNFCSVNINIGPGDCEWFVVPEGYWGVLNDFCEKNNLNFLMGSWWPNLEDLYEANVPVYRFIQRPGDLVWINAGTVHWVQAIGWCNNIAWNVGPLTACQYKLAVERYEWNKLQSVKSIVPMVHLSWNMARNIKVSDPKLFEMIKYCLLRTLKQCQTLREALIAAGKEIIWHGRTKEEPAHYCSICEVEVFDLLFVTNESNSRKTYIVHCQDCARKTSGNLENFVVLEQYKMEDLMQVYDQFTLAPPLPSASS

| SMILES | IC50 [1] [nM] | IC50 [2] [nM] | IC50 [3] [nM] | IC50 [4] [nM] |
| --- | --- | --- | --- | --- |
| CCN(CCN(C)C)C(=O)CNCc1cc(C(=O)N(C)S(C)(=O)=O)ccn1 [#71, 2-{[({[2-(dimethylamino)ethyl](ethyl)carbamoyl}methyl)amino]methyl}-N-methanesulfonyl-N-methylpyridine-4-carboxamide] | < 100 | 100 to 1000 | ≥ 1000 | < 100 |
| CCCCCCCCCCCCCCCC(=O)OCC(COC(=O)CCCCCCCCCCCCCCC)OC(=O)c1ccnc(CNCC(=O)N(CC)CCN(C)C)c1 [#68, 2-(2-{[({[2-(dimethylamino)ethyl](ethyl)carbamoyl}methyl)amino]methyl}pyridine-4-carbonyloxy)-3-(hexadecanoyloxy)propyl hexadecanoate] | 100 to 1000 | ≥ 1000 | < 100 | 100 to 1000 |
| CCCN(CC(=O)N1CCCCC1)Cc1cc(C(=O)O)ccn1 [#87, 2-({[2-oxo-2-(piperidin-1-yl)ethyl](propyl)amino}methyl)pyridine-4-carboxylic acid] | ≥ 1000 | 100 to 1000 | < 100 | 100 to 1000 |
| CCN(CCN(C)C)C(=O)CNCc1cc(C(=O)OCC(F)(F)F)ccn1 [#80, 2,2,2-trifluoroethyl 2-{[({[2-(dimethylamino)ethyl](ethyl)carbamoyl}methyl)amino]methyl}pyridine-4-carboxylate] | < 100 | ≥ 1000 |  | < 100 |
| CCN(CCN(C)C)C(=O)CNCc1cc(C(=O)N2CCOC2=O)ccn1 [#72, N-[2-(dimethylamino)ethyl]-N-ethyl-2-({[4-(2-oxo-1,3-oxazolidine-3-carbonyl)pyridin-2-yl]methyl}amino)acetamide] | < 100 | ≥ 1000 |  | < 100 |
| CC(C)CN(CC(=O)N1CCCCC1)Cc1cc(C(=O)O)ccn1 [#86, 2-{[(2-methylpropyl)[2-oxo-2-(piperidin-1-yl)ethyl]amino]methyl}pyridine-4-carboxylic acid] | ≥ 1000 | 100 to 1000 | < 100 | ≥ 1000 |
| CCN(CCN(C)C)C(=O)CNCc1cc(C(=O)OC)ccn1 [#70, methyl 2-{[({[2-(dimethylamino)ethyl](ethyl)carbamoyl}methyl)amino]methyl}pyridine-4-carboxylate] | < 100 | ≥ 1000 | < 100 | < 100 |

The remaining lines, values ahead:

| IC50 [1] [nM] | IC50 [2] [nM] | IC50 [3] [nM] | IC50 [4] [nM] | SMILES |
| --- | --- | --- | --- | --- |
| < 100 | ≥ 1000 | < 100 | < 100 | CCN(CCN(C)C)C(=O)CNCc1cc(C(=O)OCC(F)F)ccn1 [#91, 2,2-difluoroethyl 2-{[({[2-(dimethylamino)ethyl](ethyl)carbamoyl}methyl)amino]methyl}pyridine-4-carboxylate] |
| 100 to 1000 | ≥ 1000 | < 100 | < 100 | CCN(CCN(C)C)C(=O)CNCc1cc(C(=O)OCCF)ccn1 [#90, 2-fluoroethyl 2-{[({[2-(dimethylamino)ethyl](ethyl)carbamoyl}methyl)amino]methyl}pyridine-4-carboxylate] |
| ≥ 1000 | 100 to 1000 | < 100 | ≥ 1000 | CC(C)N(CC(=O)N1CCCCC1)Cc1cc(C(=O)O)ccn1 [#88, 2-({[2-oxo-2-(piperidin-1-yl)ethyl](propan-2-yl)amino}methyl)pyridine-4-carboxylic acid] |
| ≥ 1000 | 100 to 1000 | 100 to 1000 | ≥ 1000 | CC(C)C[C@H](NCc1cc(C(=O)O)ccn1)C(=O)NC(C)(C)C [#92, 2-({[(1S)-1-(tert-butylcarbamoyl)-3-methylbutyl]amino}methyl)pyridine-4-carboxylic acid] |
